The target in test [1] is Matrix metalloproteinase-9 (Homo sapiens, UniProt P14780). Briefly: Inhibition of Matrix metalloprotease-9.
In another test the target is Stromelysin-1 (Homo sapiens, UniProt P08254). Briefly: Inhibition of Matrix metalloprotease-3.
The target in test [2] is 72 kDa type IV collagenase (Homo sapiens, UniProt P08253). Put plainly: Inhibition of Matrix metalloprotease-2.
The next test has as its target T1, Interstitial collagenase (Homo sapiens, UniProt P03956).
T1 sequence (P03956 whole entry): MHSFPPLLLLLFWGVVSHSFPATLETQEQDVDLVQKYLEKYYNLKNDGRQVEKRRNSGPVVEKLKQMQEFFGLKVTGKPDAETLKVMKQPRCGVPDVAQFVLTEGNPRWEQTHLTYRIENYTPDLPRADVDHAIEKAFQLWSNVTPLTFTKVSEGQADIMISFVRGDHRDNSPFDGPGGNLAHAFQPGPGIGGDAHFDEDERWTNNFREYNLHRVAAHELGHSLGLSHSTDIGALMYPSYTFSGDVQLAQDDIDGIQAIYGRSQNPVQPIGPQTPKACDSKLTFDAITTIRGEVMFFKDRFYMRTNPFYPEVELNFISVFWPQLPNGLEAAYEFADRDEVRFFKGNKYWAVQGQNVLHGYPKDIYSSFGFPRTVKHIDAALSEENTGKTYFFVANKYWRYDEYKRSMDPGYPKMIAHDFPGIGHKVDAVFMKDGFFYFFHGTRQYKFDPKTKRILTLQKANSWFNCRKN
Put plainly: Inhibition of Matrix metalloprotease-1.

The target in a further test is Neutrophil collagenase (Homo sapiens, UniProt P22894). Put plainly: Inhibition of Matrix metalloprotease-8.
Sequence of Neutrophil collagenase (P22894 whole entry): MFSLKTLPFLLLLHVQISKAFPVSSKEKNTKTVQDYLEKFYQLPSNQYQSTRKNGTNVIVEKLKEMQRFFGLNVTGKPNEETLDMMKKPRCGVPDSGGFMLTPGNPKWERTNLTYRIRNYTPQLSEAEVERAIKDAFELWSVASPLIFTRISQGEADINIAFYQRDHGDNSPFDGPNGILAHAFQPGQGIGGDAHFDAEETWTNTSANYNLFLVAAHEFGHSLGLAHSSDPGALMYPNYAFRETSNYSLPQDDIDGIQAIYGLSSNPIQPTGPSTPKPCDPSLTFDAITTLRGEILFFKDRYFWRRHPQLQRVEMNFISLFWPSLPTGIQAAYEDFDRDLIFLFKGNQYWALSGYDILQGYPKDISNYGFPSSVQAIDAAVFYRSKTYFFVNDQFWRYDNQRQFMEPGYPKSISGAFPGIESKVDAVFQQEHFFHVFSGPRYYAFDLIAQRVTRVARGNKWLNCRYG

Our source for the Ki values is ChEMBL document CHEMBL1131225, “Macrocyclic amino carboxylates as selective MMP-8 inhibitors” (J Med Chem, 1998).

Each structure is given as a SMILES string. pKi: −log10 of the molar value.

As a reminder, the pKi is −log10 of the Ki, conventionally taken in molar units. A lower pKi goes with a large Ki.

Sequence of Stromelysin-1 (P08254 whole entry): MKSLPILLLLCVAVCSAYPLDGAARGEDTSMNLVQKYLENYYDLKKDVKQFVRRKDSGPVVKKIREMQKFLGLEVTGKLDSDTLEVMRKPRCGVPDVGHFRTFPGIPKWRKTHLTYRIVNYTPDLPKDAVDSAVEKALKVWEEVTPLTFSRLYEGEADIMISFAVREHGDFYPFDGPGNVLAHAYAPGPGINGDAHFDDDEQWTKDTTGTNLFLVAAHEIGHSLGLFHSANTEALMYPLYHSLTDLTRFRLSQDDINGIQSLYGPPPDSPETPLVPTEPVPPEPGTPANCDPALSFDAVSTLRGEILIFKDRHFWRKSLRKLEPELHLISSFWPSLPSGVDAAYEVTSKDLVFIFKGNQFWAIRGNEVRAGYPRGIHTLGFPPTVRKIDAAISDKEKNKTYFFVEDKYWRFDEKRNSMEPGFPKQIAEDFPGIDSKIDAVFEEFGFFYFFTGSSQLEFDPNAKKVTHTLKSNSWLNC
Sequence of 72 kDa type IV collagenase (P08253 whole entry): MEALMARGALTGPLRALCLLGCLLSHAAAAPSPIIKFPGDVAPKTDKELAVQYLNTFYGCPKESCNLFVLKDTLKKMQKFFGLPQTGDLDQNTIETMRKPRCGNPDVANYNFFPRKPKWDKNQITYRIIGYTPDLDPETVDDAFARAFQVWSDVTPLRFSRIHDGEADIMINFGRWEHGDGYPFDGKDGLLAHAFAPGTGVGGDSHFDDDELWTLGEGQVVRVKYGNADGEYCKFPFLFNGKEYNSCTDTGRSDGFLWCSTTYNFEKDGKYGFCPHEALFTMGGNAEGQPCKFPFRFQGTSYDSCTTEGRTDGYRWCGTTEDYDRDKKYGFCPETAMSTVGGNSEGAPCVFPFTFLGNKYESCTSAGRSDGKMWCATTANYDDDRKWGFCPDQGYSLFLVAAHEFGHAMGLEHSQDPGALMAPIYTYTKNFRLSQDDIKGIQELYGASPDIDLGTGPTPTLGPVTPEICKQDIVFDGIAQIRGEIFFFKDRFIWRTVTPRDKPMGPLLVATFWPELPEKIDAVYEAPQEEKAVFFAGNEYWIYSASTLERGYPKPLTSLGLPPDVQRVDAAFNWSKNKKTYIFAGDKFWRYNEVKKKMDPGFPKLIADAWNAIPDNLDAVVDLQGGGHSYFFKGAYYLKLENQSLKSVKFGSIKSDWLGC
Sequence of Matrix metalloproteinase-9 (P14780 whole entry): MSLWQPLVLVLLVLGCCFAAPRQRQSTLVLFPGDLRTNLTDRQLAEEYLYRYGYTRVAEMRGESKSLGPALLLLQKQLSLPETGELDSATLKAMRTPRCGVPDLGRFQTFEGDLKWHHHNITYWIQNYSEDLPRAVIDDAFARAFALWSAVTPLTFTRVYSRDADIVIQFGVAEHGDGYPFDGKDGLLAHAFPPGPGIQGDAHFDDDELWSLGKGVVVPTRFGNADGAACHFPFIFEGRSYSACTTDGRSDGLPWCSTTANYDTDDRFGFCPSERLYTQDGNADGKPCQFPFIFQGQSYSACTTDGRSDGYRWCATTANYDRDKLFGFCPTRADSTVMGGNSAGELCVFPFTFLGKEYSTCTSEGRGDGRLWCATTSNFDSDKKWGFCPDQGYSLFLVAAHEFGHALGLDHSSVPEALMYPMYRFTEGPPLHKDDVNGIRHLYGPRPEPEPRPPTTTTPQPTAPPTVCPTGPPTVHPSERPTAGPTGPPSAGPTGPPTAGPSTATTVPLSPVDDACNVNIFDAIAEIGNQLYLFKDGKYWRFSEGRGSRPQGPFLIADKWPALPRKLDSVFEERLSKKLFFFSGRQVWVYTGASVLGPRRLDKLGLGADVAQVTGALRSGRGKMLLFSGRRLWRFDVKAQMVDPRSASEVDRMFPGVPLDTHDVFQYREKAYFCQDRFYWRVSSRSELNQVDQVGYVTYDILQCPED

As to `CNC(=O)[C@@H]1CCC(=O)OCCNC(=O)CC[C@H](C(=O)O)N[C@@H](CCc2ccccc2)C(=O)N1`, the pKi in test [1] is 5.24; at Stromelysin-1, 5.54; in test [2] it was 6.62; at Interstitial collagenase, 5.08; on Neutrophil collagenase, 8.00.

As to `CNC(=O)[C@@H]1CCCCNC(=O)CC[C@H](C(=O)O)N[C@@H](CCc2ccc(-c3ccccc3)cc2)C(=O)N1`, the negative logarithm of the Ki (pKi) in test [1] is 6.54; on Stromelysin-1, 5.62; in test [2], 6.60; at Interstitial collagenase, 5.84; on Neutrophil collagenase it was 8.05.

Consider `CNC(=O)[C@@H]1CCCCNC(=O)C[C@H](C(=O)O)N[C@@H](CCc2ccccc2)C(=O)N1`, for which the negative logarithm of the Ki (pKi) in test [1] was 5.01; on Stromelysin-1 it was 4.46; in test [2], 5.62; on Interstitial collagenase, 6.05; at Neutrophil collagenase, 6.27.

With `CNC(=O)[C@@H]1CCCCNC(=O)CC[C@H](C(=O)O)N[C@@H](CCc2ccccc2)C(=O)N1`, the pKi in test [1] was 5.18; at Stromelysin-1, 4.87; in test [2] it was 5.09; at Neutrophil collagenase it was 7.77.

For `CNC(=O)CC[C@@H](N[C@@H](CCc1ccccc1)C(=O)N[C@@H](CCCCNC(C)=O)C(=O)NC)C(=O)O`, the pKi in test [1] is 6.39; on Stromelysin-1, 4.85; in test [2], 5.81; at Neutrophil collagenase, 6.53.
